Molecule `CC1=C(C(=O)OCCCO[N+](=O)[O-])C(c2cccc([N+](=O)[O-])c2)C(C(=O)OCCNC(=O)c2ccccn2)=C(C)N1` (configuration not stated) has a melting point of 146 to 148 °C.
`Nc1ccc(NC=C(S(=O)(=O)c2ccccc2)S(=O)(=O)c2ccccc2)nc1` showed a melting point of 172 to 174 °C.
For `OCC(O)Cc1c(Cl)cc2c(c1OCc1ccccc1)CCC2` (configuration not stated), the melting point was 101 to 104 °C.
Work on `CCCCc1ncc(/C=C/C=C/C(=O)O)n1Cc1ccccc1Cl` yielded a melting point of 219 to 220 °C.
In the case of `CC(NC(=O)Cc1cc(F)cc(F)c1)C(=O)NC1C(=O)NC(c2ccccc2)c2ccccc21` (configuration not stated), the melting point is reported as 244 °C.
`CN1CCCCC1=NC(=O)Nc1ccc(C(F)(F)F)cc1` showed a melting point of 154 to 155 °C.
With `CSC(=NC(C)=O)Nc1c(Cl)cccc1Cl` the melting point was 137 to 140 °C.
For `OCC1OC(OCc2ccccc2)C(O)C1O` (configuration not stated), the melting point was 95 °C.
Molecule `Cc1cc(C)c(Nc2nc(C)ncc2S(=O)(=O)c2ccc(N3CCCC3)cc2)c(C)c1` has a melting point of 196 to 198 °C.
Work on `COc1ccc(CN(Cc2ccc(OC)cc2)S(=O)(=O)c2ccc(N(CCS(C)(=O)=O)Cc3ccc(C)cc3)cc2)cc1` yielded a melting point of 85.7 to 86.6 °C.
Work on `O=C(Nc1nc(-c2ccco2)c(C(=O)c2ccccn2)s1)c1ccncc1` yielded a melting point of 218 to 227 °C.
`CN(CCCCCCCCNC(=O)NCCSCc1csc(NC(=N)N)n1)CCC(c1ccc(Cl)cc1)c1ccccn1` (configuration not stated) showed a melting point of 135 to 140 °C.
In the case of `COC(=O)c1ccc(-c2cc(C(=O)NC3CC3)cc(F)c2C)c(C(=O)O)c1`, the melting point is reported as 217 to 222 °C.
`Cc1cc(C)c(NC(=O)N=C2CCCN2C)c(C)c1` showed a melting point of 121 to 123 °C.
For `CCOC(=O)CN1C(=O)[C@H](NC(=O)[C@H](COCc2ccccc2)NC(=O)OC(C)(C)C)CSc2ccccc21`, the melting point was 52 to 54 °C.
Molecule `COc1ccc(-c2sc3ccccc3c2Oc2ccc(OCc3ccccc3)cc2)cc1F` has a melting point of 122 to 123 °C.
`NNC(=O)c1ccc(OCc2ccccc2)c(Cl)c1` showed a melting point of 168 to 171 °C.
`CCCCOc1cc(C(=O)O)n(Cc2ccc(C(F)(F)F)cc2Cl)n1` showed a melting point of 158 to 160 °C.
Work on `COc1ccc2c(c1)c(CC(=O)O)c(C)n2C(=O)c1ccc(F)cc1` yielded a melting point of 130 to 132 °C.
For `CCCCc1nc(C(C)(C)O)c(C(=O)O)n1Cc1ccc(-c2ccccc2-c2nnn[nH]2)cc1`, the melting point was 138 to 141 °C.
`CCOC(=O)CCn1cnc2c1N=CNC2N` (configuration not stated) showed a melting point of 166 to 167 °C.
`CC(SC1COC(c2cccc(C(=O)Nc3ccc(Cl)cc3)c2)OC1)C(O)(Cn1cncn1)c1ccc(F)cc1F` (configuration not stated) gave a melting point of 90 °C.
In the case of `COC(=O)C(C)(SC)c1ccc(N2C(=O)c3ccccc3C2=O)cc1` (configuration not stated), the melting point is reported as 142 to 145 °C.
With `NC(=O)c1cc2c(OCCCN3CCN(c4cc(N5CCCC5)nc(N5CCCC5)n4)CC3)cccc2[nH]1` the melting point was 151 to 152 °C.
In the case of `O=C(CBr)c1cccc(OCc2ccc3ccc(Cl)cc3n2)c1`, the melting point is reported as 110 to 112 °C.
Molecule `CON=C(C)Cc1sc2ccc(Cl)cc2c1Cl` has a melting point of 65 to 68 °C.
`COc1ccc(CCNc2cc(-n3cccn3)nc(-c3cccs3)n2)cc1` gave a melting point of 99.6 to 100 °C.
`Cc1cc(OCC(F)(F)F)c(NC(=O)CN2CCN(CCSc3nc4ccccc4o3)CC2)c(OCC(F)(F)F)n1` showed a melting point of 141 to 142 °C.
For `Cc1ncc2cc(-c3c(Cl)cccc3Br)c(N)nc2n1`, the melting point was 272 to 274 °C.
Molecule `OC1(c2cccc(-c3ccccc3)c2)CN2CCC1CC2` (configuration not stated) has a melting point of 165 to 166 °C.
Work on `O=C(c1cn(-c2cccc(-c3ccccc3)c2)cn1)n1cccn1` yielded a melting point of 124 to 127 °C.
With `NN1CCNC1=C[N+](=O)[O-]` the melting point was 159 to 160 °C.
Molecule `Brc1ccc(CCCCn2ccnc2)cc1` has a melting point of 40 °C.
In the case of `CC(C)Oc1ccc2ccc(N)nc2n1`, the melting point is reported as 170 °C.
With `CCC(=O)C1=C(O)CC(c2cc3c(cc2[N+](=O)[O-])OCO3)CC1=O` (configuration not stated) the melting point was 139 °C.
With `Cn1c(=O)c2cnccc2n(C)c1=O` the melting point was 174 to 175 °C.
Molecule `O=C(Nc1nc(-c2ccoc2)c(C(=O)C2CCOCC2)s1)c1ccnc(Cl)c1` has a melting point of 202 to 204 °C.
In the case of `C=CCONC(CCC)=C1C(=O)CC(C2CCOCC2)CC1=O` (configuration not stated), the melting point is reported as 55 to 56 °C.
`CN(CCc1ccccc1)CCc1ccc(Nc2ncc3c(n2)-c2ccccc2C(c2cccc(Br)c2)C3)cc1` (configuration not stated) showed a melting point of 80 to 82 °C.
In the case of `CC(=O)n1c2ccccc2c2[nH]c(=O)c3nccn3c21`, the melting point is reported as 340 °C.
In the case of `COc1ccc(Cl)cc1NC(=O)[C@H]1[C@H](c2ccc(S(N)(=O)=O)cc2)C1(C)C` (relative stereo), the melting point is reported as 129 to 133 °C.
With `NC1=NS(=O)N=C1NCCCN(Cc1cccs1)c1ccccn1` (configuration not stated) the melting point was 169 to 171 °C.
`C1=C(c2c[nH]c3c(C4CC4)cccc23)CCNC1` gave a melting point of 186 to 189 °C.
Work on `O=C(Nc1ccc(C(F)(F)F)cc1)c1ccccc1SSc1ccccc1C(=O)Nc1ccc(C(F)(F)F)cc1` yielded a melting point of 272 to 275 °C.
`CCOC(=O)n1c(Cc2ccccc2)noc1=O` gave a melting point of 129 °C.
With `CN(C)c1ccc2c(c1)C(=O)CC(c1ccccc1OCc1ccccc1)=N2` the melting point was 210 to 212 °C.
`CCOC(=O)Cc1ccc(-c2nc(COc3ccc(COc4nn(-c5ccccc5)cc4/C=C/c4coc(CC)n4)cc3OC)c(C)o2)cc1` gave a melting point of 155 to 157 °C.
Molecule `COc1ccc(S(=O)(=O)C(CC=C(C)C)(Cc2cccnc2)C(=O)NO)cc1` (configuration not stated) has a melting point of 89 to 92 °C.
`COC(=O)c1sc2ccccc2c1N=CN(C)C` gave a melting point of 73 to 74 °C.
With `Cc1nsc(NC(=O)Cc2ccc3nn(CC(C)C)cc3c2)c1Cl` the melting point was 133 to 135 °C.
Work on `NS(=O)(=O)c1cc(C(=O)OCC(=O)NCCO[N+](=O)[O-])c(NCc2ccco2)cc1Cl` yielded a melting point of 135 °C.
`CC(CN(C)C)Nc1ccnc2cc3c(cc12)OCO3` (configuration not stated) gave a melting point of 71 to 72 °C.
In the case of `COc1cc(S(N)(=O)=O)cc(C(=O)Cl)c1OC`, the melting point is reported as 153 °C.
With `Cc1nc(-c2ccc([N+](=O)[O-])c(C)c2)c[nH]1` the melting point was 158 to 160 °C.
Molecule `CC(C)CC1NC(C)(C)CNC1=O` (configuration not stated) has a melting point of 112 to 115 °C.
`CC(=O)NC1Cc2ccccc2C1` showed a melting point of 126 to 128 °C.
Work on `COc1ccc(OCc2cccc(OCc3ccc4ccccc4n3)c2)c(C(=O)O)c1` yielded a melting point of 248 to 249 °C.
For `COc1ccc(CNC(=O)c2ccc([N+](=O)[O-])cc2N)cc1`, the melting point was 129 to 131 °C.
`CON=C(c1noc(C)n1)c1cc(Cl)ccc1OCc1ccc(Cl)cc1` gave a melting point of 127 to 128 °C.
For `CN1CCN(c2c(F)cc3c(=O)c(C(=O)O)cn(C4CC4)c3c2C#N)CC1`, the melting point was 264 to 265 °C.
In the case of `CS(=O)Cc1cccc(-c2nc(=O)c3ccccc3s2)n1` (configuration not stated), the melting point is reported as 184 to 186 °C.
`O=C(C(c1ccc(Cl)cc1)c1c(Cl)cc(-n2ncc(=O)[nH]c2=O)cc1Cl)N1CCCCC1` (configuration not stated) gave a melting point of 217 °C.
For `Cc1ccc(-c2ccc(C(=O)Nc3ccc4cc(CN5CCCC5)cnc4c3C)cn2)cc1`, the melting point was 178 to 180 °C.
`COc1cccc(C2(C=O)CCNCC2)c1OC` showed a melting point of 123 °C.
With `COc1cc(NCCCCCCN2C(=O)c3ccccc3C2=O)c2ncccc2c1` the melting point was 123 to 124 °C.
Molecule `N#Cc1cc(Cl)c(-n2ncc(-c3nc(C#N)c(C#N)[nH]3)n2)c(Cl)c1` has a melting point of 183 to 185 °C.
Work on `COc1ccc(-c2ccnc3c(C(=O)c4cccs4)cnn23)c(OC)c1` yielded a melting point of 146 to 148 °C.
Work on `COC(=O)C1C(c2ccccc2)OC(=O)N1C(c1ccccc1)c1ccccc1` (configuration not stated) yielded a melting point of 99 to 102 °C.
In the case of `COc1ccc2c(c1)C(=O)c1c-2c(N2CCNCC2)nc2ccc(F)cc12`, the melting point is reported as 157 to 158 °C.
`COC(=O)C1=C(C)NC(C)=C(C(=O)OC/C=C/c2ccc(O)cc2)C1c1cccc([N+](=O)[O-])c1` (configuration not stated) gave a melting point of 138 to 139 °C.
In the case of `O=C(Nc1ccccc1)Nn1ccc2ccccc21`, the melting point is reported as 243 °C.
`COC(=O)CCCc1cc2nc(Cl)ccc2n1S(=O)(=O)c1cccc(-c2cscn2)c1` gave a melting point of 147 to 148 °C.
Molecule `C=Cc1cc(-c2cccnc2)no1` has a melting point of 60 to 64 °C.
`C=CCn1c(C)nc2c3c(ccc21)[C@@H](OCCOC)[C@H](O)[C@@H](c1ccccc1)O3` gave a melting point of 79 °C.
Work on `Cc1cc(C(F)(F)F)cc(Oc2ccc(CCNc3ncnc4scnc34)cc2)n1` yielded a melting point of 111 to 112 °C.
In the case of `O=C(N[C@@H]1CCN(CCNc2ncccn2)C[C@H]1O)c1cccc(C(F)(F)F)c1` (relative stereo), the melting point is reported as 148 °C.
Work on `COC(=O)C(=O)c1sccc1COc1ccccc1` yielded a melting point of 98 to 99 °C.
Work on `COc1cc2cc(-c3cc4cc(OC)c(OC)c(C(C)C)c4cc3C)c(C)cc2c(C(C)C)c1OC` yielded a melting point of 215 to 216 °C.
For `Cc1ccc2[nH]c(=O)c(C(=O)NC3CCCCC3)c(O)c2c1`, the melting point was 269 °C.
`CC1(C)Cc2cc([N+](=O)[O-])cc(O)c2O1` gave a melting point of 96 to 97 °C.
`CC(C)COC(=O)Nc1cc(Cl)cc(Cl)c1` gave a melting point of 75 °C.
Molecule `CC(C)n1cc(C2CCC(=O)CC2)c2cc(C#N)ccc21` has a melting point of 106 to 107 °C.
For `Cc1ccccc1C(C#N)=C1C=CC(=NOP(=O)(c2ccccc2)c2ccccc2)S1`, the melting point was 165 to 167 °C.
For `CCn1cc(C(=O)O)c(=O)c2c(F)c(F)c(N3CCNC(c4ccsc4)C3)c(F)c21` (configuration not stated), the melting point was 221 to 222 °C.
With `Cc1ccc2c(c1)NC(=O)c1cccc3c1N2CC3` the melting point was 238 to 240 °C.
`CCCc1c(OCCCCCOc2c(C(C)=O)ccc(OCC(=O)O)c2CCC)ccc(C(C)=O)c1O` gave a melting point of 86 to 89 °C.
For `Cc1cccc(Nc2cc(Cl)nc(Cl)n2)c1C`, the melting point was 204 to 206 °C.
Molecule `NS(=O)(=O)c1ccc(NN=C2C(=O)Nc3cccc(Oc4ccccc4)c32)cc1` has a melting point of over 250 °C.
`CN1CCC(C2Oc3cc(Cl)ccc3Cn3c(Cl)ccc32)CC1` (configuration not stated) gave a melting point of 132 to 140 °C.
With `COc1ccc(C(=O)N2CC[C@H](O)C2=O)cc1OCc1ccccc1` the melting point was 166 to 167 °C.
For `CC(C)c1ccccc1N=C1N=CC(C)(C)CS1`, the melting point was 155 to 157 °C.
In the case of `CS(=O)c1ccc(-c2nn(Cc3ccc(Cl)cc3Cl)c(=O)cc2-c2ccc(F)cc2)cc1` (configuration not stated), the melting point is reported as 214 °C.
For `N#CC1(c2cccc(OCc3ccc4ccc(F)cc4c3)c2)CCOCC1`, the melting point was 106 to 107 °C.
With `COC(=O)Cc1ccc(OCCNC(=O)C2Cc3ccccc3N2S(=O)(=O)c2ccc(-c3cccc(C(F)(F)F)c3)cc2)cc1C` (configuration not stated) the melting point was 53 to 57 °C.
With `c1ccc(CN2CCOc3cccc4nc5c(c2c34)CCCC5)cc1` the melting point was 132 to 133 °C.
With `COC(=O)CCC/C=C(/c1cc(C)c2on(C)c(=O)c2c1)c1cc(C)c2oc(=O)n(C)c2c1` the melting point was 152 to 154 °C.
For `Cc1ccc(C(=O)NCCNC(=O)OC(C)(C)C)s1`, the melting point was 109 to 110 °C.

Source: a melting point compilation (Tetko et al.; mined from patent text by program, amines drawn as free bases though some values may be those of a salt)
